Consider eleven compounds from US20210230213A1, “ARAMCHOL SALTS” (GALMED RESEARCH AND DEVELOPMENT LTD., priority 2013, published 2021).

Counter-ions that a name gives are not always drawn. Like-named read-outs stand apart in the source and are kept apart here.

Data set [1] can be described thus: Dynamic Vapour Sorption (DVS). The data set is classed as physicochemical. Here is the method:
The samples was weighed in a glass pan, typically 20-30 mg, and equilibrated at 0% relative humidity (RH). After the material had dried, the RH was increased with 10% per step for 1 hour per increment, ending at […].
The software used for data collection was DVSWin v3.01 No Video. Data analysis was performed using DVS Standard Analysis Suite v6.3.0 (Standard).
After completion of sorption cycle, the material was dried. XRPD was performed before and after DVS.

Data set [2] can be described thus: Fill weight of size 00 HPMC capsule. Conditions: hard HPMC capsule size 00, filled as is without tapping. It is filed as physicochemical. From the text: Aramchol (free acid), and the three salts were filled as are, into hard HPMC (Hypromellose; Capsule size 00 (CapsCanada, ON, Canada) without taping, fill weight is presented in table 9.
Data set [3] can be described thus: In vivo permeability / PK after intrajejunal administration in cannulated rats (Example 7). The note with it: rat; for Cmax: 100 mg/kg (based on free acid) in PBS 30 mg/mL, plasma Aramchol (free acid); for Tmax: median. On the set-up: species or system male Wistar rats. Here is the method:
An in vivo permeability study of Aramchol salts was performed in male Wistar rats cannulated in the jugular vein and in the jejunum. Intestinal cannulation was performed in order to bypass protonation of Aramchol salts in acidic gastric pH. Aramchol salts solubilized in PBS (30 mg/mL) were administered to rats intestine (jejunum) in a dose of 100 mg/kg (based on free acid), via a cannula inserted into the proximal side of the jejunum. A suspension of Aramchol free acid (in PBS, 30 mg/mL) was administered via the same route and was used as control. Blood samples were withdrawn via a cannula inserted into jugular vein at pre-determined time points (pre-dose, 1 hr, 2 hr, 4 hr, 8 hr, 12 hr, 24 hr post dose). Plasma concentrations of Aramchol (free acid) were measured using a liquid chromatography-tandem mass spectrometry (LC-MS-MS) method by Analyst Bioanalytical Laboratories, Israel. All PK parameters were calculated using non-compartmental analysis. Only those plasma concentrations equal to or greater than the lower limit of quantitation (LOQ) (48.66 ng/mL) were used in the analysis. Plasma concentrations <LOQ that occurred from pre-dose to the first concentration ≥LOQ were treated as 0. Actual sampling times were used for all pharmacokinetic analyses. The following PK parameters were calculated: maximum plasma concentration (Cmax), time to Cmax (Tmax), area under the plasma concentration-time curve from time of administration until the last plasma concentration (AUC0-4), AUC/dose, elimination half-life (t½). Cmax and Tmax were taken directly from the data. Area under the curve from zero to the final sample with a concentration ≥LOQ. AUC0-4 was calculated using the linear trapezoidal method.

The nature of data set [4]: Aqueous solubility at 20° C., shake-flask, stepwise water addition (Example 2). The data set is classed as physicochemical. The note with it: for solubility: water, 20 °C, thermodynamic from solid, 20° C. Here is the method: The Aramchol salts of the present invention were further assessed for their solubility in water. […] 5 mg of each salt was weighed. Water was added stepwise until a clear solution was obtained (Table 2, solubility in water). The pH of each solution was measured (Table 2, pH after solubility).

The next data set is described as follows: physchem. Conditions: 50 °C, organic solvent or mixture.
Data set [5] is described as follows: Saturated solubility in buffer solutions and bio-relevant media at 37° C. (Example 6). The data set is classed as physicochemical. Conditions: 37° C.
The mark [6] stands for this setting: RH raised from 0% in 10% steps to 95% RH, stepwise, reversible.
Setting [7] is: 100 mg/kg, mean ± standard error.
Where [8] appears, read: water, Aramchol free acid and base 1:1, 50° C.

2-diethylamino-ethanol: the “salt remains in solution after cooling to 20° C.” value (from here on “salt remains in solution”) was “yes”. Moreover, the “Mass uptake (DVS)” value in data set [1] is reported as 12.1% (stepwise; reversible). Also, for the setting “50° C.”, the “Dissolved (50 in g in 1) at 50° C.” value is “Yes”.

Regarding “3β-arachidylamido-7α,12α-dihydroxy-5β-cholan-24-oic acid lysine salt [L-Lysine]”, the “Mass uptake (DVS)” value in data set [1] (setting [6]) is recorded as 23.1% (stepwise, reversible). Also, the “fill weight of one 00 size capsule” value in data set [2] worked out at 0.33 gram. In addition, in data set [3] (mean ± standard error), the Cmax is recorded as 7294.2 ± 5463.0 (5) ng/mL. Besides, in data set [3] (setting [7]), the “AUC(0-t)” value was 26460.3 ± 9415.5 (5) hr × ng/mL, the AUC/dose was 270.0 ± 99.0 (5) hr × ng × kg/mL × mg and the t1/2 is reported as 5.2 ± 1.0 (5) hr. In addition, the Tmax in data set [3] (100 mg/kg) is 2.0 (5) [2-4] hr. Moreover, the “Dissolved (50 in g in 1) at 50° C.” value under setting [8] is given as “No”.

On to `CCCCCCCCCCCCCCCCCCCC(=O)NC1CCC2(C)C(C1)CC(O)C1C2CC(O)C2(C)C(C(C)CCC(=O)O)CCC12.N` (stereo not drawn) [Ammonia], for which the “Dissolved (50 in g in 1) at 50° C.” value is “No” and the “salt remains in solution” value is reported as “no”. The “Mass uptake (DVS)” value in data set [1] is recorded as 5.4% (stepwise; reversible).

Turning to `c1ccc(CNCCNCc2ccccc2)cc1` [Benzathine], under setting [8], the “Dissolved (50 in g in 1) at 50° C.” value was “No”.

Turning to `CN(C)CCO` [Deanol], the “Mass uptake (DVS)” value in data set [1] (setting [6]) is given as 17.3% (stepwise; reversible). Moreover, under setting [8], the “Dissolved (50 in g in 1) at 50° C.” value is reported as “Yes”. For the same compound, the “salt remains in solution” value (water, cooled to 20° C.) was “yes”.

On to `CCNCC` [Diethylamine], for which the “Mass uptake (DVS)” value in data set [1] (setting [6]) was 14.8% (stepwise; reversible). The “Dissolved (50 in g in 1) at 50° C.” value under setting [8] is “Yes”. Besides, the “salt remains in solution” value (water, cooled to 20° C.) is “no”.

On to `NCCO` [Ethanolamine], for which, in data set [1] (setting [6]), the “Mass uptake (DVS)” value is 13.2% (stepwise; reversible).

`CCCCCCCCCCCCCCCCCCCC(=O)N[C@H]1CC[C@@]2(C)[C@@H](C1)C[C@@H](O)[C@@H]1[C@@H]2C[C@H](O)[C@]2(C)[C@@H]([C@H](C)CCC(=O)O)CC[C@@H]12` [Tromethamine, 3β-arachidylamido-7α,12α-dihydroxy-5β-cholan-24-oic acid tromethamine salt]: the “Mass uptake (DVS)” value in data set [1] (setting [6]) is 9.4% (stepwise; reversible). The “fill weight of one 00 size capsule” value in data set [2] worked out at 0.31 gram. In data set [4] (after solubility test in water, XRPD: Crystalline), the pH of solution worked out at 8. For the same compound, the solubility in data set [4] (XRPD: Crystalline) was 32 to 95 mg/mL; in data set [4] (XRPD: Poorly crystalline), less than 11 mg/mL; in data set [5] (Demi-Water (pH 7.8), 24 h) it was “Gel”; in data set [5] (Demi-Water (pH 7.8), 24 h, listed as tromethamine salt), “turned into gets”; in data set [5] (FaSSIF (pH 6.5), 30 min) it was “Gel”; in data set [5] (FaSSIF (pH 6.5), 24 h), “Gel”. For the same compound, the solubility result in data set [5] (FeSSIF (pH 5.0), 30 min) is recorded as “Gel”; in data set [5] (FeSSIF (pH 5.0), 24 h), “Gel”; in data set [5] (PBS pH 7.4, 24 h), “Gel”; in data set [5] (Phosphate buffer pH 6.5, 30 min), “Gel”; in data set [5] (Phosphate buffer pH 6.5, 24 h), “Gel”; in data set [5] (Phosphate buffer pH 7.0, 24 h), “Gel”. For the same compound, the solubility at 2 h in the data set “physchem” was more than 50 mg/mL. Further, the solubility at 30 min in data set [5] (aqueous buffer, thermodynamic from solid, PBS pH 7.4, 30 min) was 23 mg/mL; in data set [5] (aqueous buffer, thermodynamic from solid, Phosphate buffer pH 7.0, 30 min) it was 29.4 mg/mL; in data set [5] (saline or isotonic, thermodynamic from solid, Saline pH 5.5, 30 min), 0.03 mg/mL; in data set [5] (simulated gastric fluid, thermodynamic from solid, HCl buffer pH 1.2, 30 min), 0.02 mg/mL; in data set [5] (thermodynamic from solid, Demi-Water (pH 7.8), 30 min), 45 mg/mL. The compound further came in with a solubility at 24 h in data set [5] (simulated gastric fluid, thermodynamic from solid, HCl buffer pH 1.2, 24 h) of 0.29 mg/mL. In addition, the Half-life in data set [3] (male, Wistar, plasma, 100 mg/kg, mean ± standard error) is 6.5 ± 2.4 h. In data set [3] (male, Wistar, plasma, 100 mg/kg, mean ± standard error, read-out: AUC 0-t), the AUC(0-t) amounted to 18600 ± 2280 ng·h/mL. In addition, in data set [3] (male, Wistar, plasma, 100 mg/kg, read-out: Tmax), the Tmax was found to be 2 h. Besides, the Cmax in data set [3] (male, Wistar, mean ± standard error, read-out: Cmax) amounted to 2250 ± 208 ng/mL. Moreover, in data set [3] (setting [7]), the AUC/dose is 184.7 ± 22.7 (4) hr × ng × kg/mL × mg. The “Dissolved (50 in g in 1) at 50° C.” value under setting [8] is listed as “No”.

For Choline, the “Dissolved (50 in g in 1) at 50° C.” value was “Yes” and the “salt remains in solution” value is “yes”.

For Diethanolamine, in data set [1] (setting [6]), the “Mass uptake (DVS)” value was 6.9% (stepwise; reversible). Further, the “Dissolved (50 in g in 1) at 50° C.” value under setting [8] is listed as “Yes”. Further, the “salt remains in solution” value (water, cooled to 20° C.) was “yes”.

For the compound L-Arginine, the “Dissolved (50 in g in 1) at 50° C.” value under setting [8] is on record as “Yes”. Besides, the “salt remains in solution” value (water, cooled to 20° C.) is “no”.
